# Entries after “also recorded” stand apart in the source; their conditions may differ.
# What was measured:
# HeLaS3-Gluc cells [1] = experiment: Gluc expression of HeLaS3-Gluc cells treated with amiloride, with or without ER stressors; format: cell-based, human
# Experimental: (§1) HeLaS3-Gluc cells were plated at 10K/well and incubated overnight. Subsequently, they were pre-treated with amiloride and incubated for 1 hour. Amiloride was used at increasing doses, both alone and in the presence of cellular stressors tunicamycin or thapsigargin. When the ER stressors were included, incubation was for 2 hours, at which time Gluc was measured. The media was then changed, and amiloride and ER stressors were added again. This time incubation was overnight. The media was again changed and the amount of Gluc made was measured after two hours. Amiloride was used in amounts of 0-500 μM. Tunicamycin was used in an amount of 5 μM. Thapsigargin was used in an amount of 2 μM.
# HeLaS3-Gluc cells [2] = experiment: Viability of HeLaS3-Gluc cells treated with amiloride, with or without ER stressors; format: cell-based, human
# Experimental: as §1
# [3] = amiloride alone, 0-500 μM, no stress, normalized to no amiloride at 18 hours (FIG. 1)
smiles,measurement,setting,value
"N=C(N)NC(=O)c1nc(Cl)c(N)nc1N [amiloride, 3,5-diamino-6-chloro-N-(diaminomethylene) pyrazine 2-carboxamide]",Gluc expression (luciferase output) under ER stress,"HeLaS3-Gluc cells [1]; amiloride 0-500 μM with tunicamycin 5 μM or thapsigargin 2 μM, 18 hours (FIG. 3)",rescued by treatment with an increasing amount of amiloride; also recorded: can restore Gluc expression
same,Gluc expression (luciferase output) of unstressed cells,HeLaS3-Gluc cells [1]; [3],did not lead to increased luciferase output
same,cell viability under ER stress,"HeLaS3-Gluc cells [2]; amiloride 0-500 μM with tunicamycin 5 μM or thapsigargin 2 μM, normalized to no stress at 18 hours (FIG. 2)",does not have an additional effect on cell viability
same,viability of unstressed cells,HeLaS3-Gluc cells [2]; [3],decrease in viability
